Results on four molecules are retold here after patent publication US20210388012A1, “METHODS AND COMPOSITIONS FOR PRODRUG FORMS OF SPECTINOMYCIN AND SPECTINAMIDE ANALOGS” (priority 2018, published 2021).

The nature of data set [1]: Single ascending maximum tolerated dose study in rat. Type of data set: in vivo. To be noted: female Sprague-Dawley rats. The protocol: Several compounds were assessed in single ascending maximum tolerated studies. The compounds assessed were 1810; 3408, a prodrug form of compound 1810; 1599, a chloro homologue of compound 1810; and gentamicin, an antimicrobial associated with ototoxicity. The study was carried out in female Sprague-Dawley rats (n=3 per group). All the drug solutions were prepared in water and PLASMA-LYTE A (50:50; […] was obtained from Baxter Healthcare Corporation, Deerfield, Ill.). Each group of rats were fasted overnight with access to water aJ libitum and a fixed volume (2 mL) of drug-containing solution was administered via the jugular vein catheter. Food was withheld for 3 h post dosing. Different phases of the study were classified on five different speeds of i.v, administration; Phase 1: 5 sec, Phase 2: 30 sec, Phase 3: 5 min, Phase 4: 15 min, Phase 5: 30 min. In the first and second phases, a set of predefined dose levels: 10, 25, 50, 75, 100, 150, 300, 350, 400, 450 and 500 mg/kg. Escalation to the next higher dose was conditional upon absence of signs of acute toxicity following the immediate lower dose over a 24 h period. All animals were monitored by visual inspection focused on focus on changes in skin, fur, eyes, and also respiratory, circulatory, autonomic and central nervous systems, along with somatomotor activity and behavior pattern, including tremors, convulsions, salivation, diarrhea, lethargy, sleep and coma. A dose level was deemed an MTD if […] of acute toxicity were observed and that dose was chosen for the second phase of the study where the process was repeated to determine a toxic dose. For third, fourth and fifth phases, dosing solution was infused by a Instech tethering system (Instech Laboratories Inc., Plymouth Meeting, Pa.) where the animal is freely moving within its cage, the catheter connection is held in place by a vascular access harness and a swivel system, and the drug administration is performed via a Harvard Apparatus programmable syringe pump. After dosing, the tether was removed immediately after completion of the infusion and the catheter was flushed with (100 μL) PlasmaLyte A. Surviving animals from the previous dose with no signs of toxicity were re-used in either phases of these studies upon allowing a one day drug washout period.

Data set [2] can be described thus: in vitro. Type of data set: in vitro ADME. To be noted: human plasma, 37° C., read-out: Plasma Stability (Human) t½ (converted). The procedure: (§1) LC-MS Method 2. Chromatographic separation was performed on an Acquity UPLC BEH C18 1.7 μm, 2.1×50 mm column (Waters Corporation, Milford, Mass.) or a Luna Omega 1.6 μm C18, 2.1×50 mm column (Phenomenex, Torrance, Calif.) using an Acquity ultra performance liquid chromatography system. Data were acquired using Masslynx v. 4.1 and analyzed using the Openlynx software suite. This was coupled to an Acquity photodiode array detector, which acquired UV data from 210-400 nm. The flow was then split, with half directed to an evaporative light scattering detector (ELSD) and half to an SQ mass spectrometer. The total flow rate was 1 mL/min. The sample injection volume was 10 μL. The UPLC column was maintained at 60° C. and the gradient program with either basic mobile phase (A1, 10 mM ammonium bicarbonate in MilliQ H2O; B1, 0.1% formic acid in acetonitrile) or formic mobile phase (A1, 0.1% formic acid in MilliQ H2O; B1, 0.1% formic acid in acetonitrile) based on the compounds' physical and chemical properties. The mass spectrometer was operated in positive-ion mode with electrospray ionization. The conditions were as follows; capillary voltage 3.4 kV, cone voltage 30 V, source temperature 130° C., desolvation temperature 400° C., desolvation gas 800 L/hr, cone gas 100 L/hr. A full scan range from m/z=110-1000 in 0.2 s was used to acquire MS data. The ELSD-drift tube temperature was set at 52° C.
Plasma stability was determined after incubation in human plasma for various incubation time, i.e., incubation times of 0, 3, 24, and 48 hour were used. DMSO stock solutions of test compounds were prepared at 10 mM concentration. 1.8 μL of each test compound was each added directly to 1.8 mL of human plasma to get the final concentration of 10 μM. This compound/matrix was mixed and 70 μL was transferred to 4 time points plates (each in triplicate wells). […] The plasma stability was evaluated via the half-life from least-squares fit of the multiple time points based on first-order kinetics.

Data set [3] can be described thus: Metabolic stability, human liver microsomal degradation. Type of data set: in vitro ADME. As to conditions: human liver microsomes; read-out: Metabolic Stability (Human) t½ (converted). The procedure:
as §1
The stability of compounds to human liver microsomal degradation, i.e., metabolic stability, was determined as described previously (see North, E. J., et al, Bioorg. Med. Chem. (2013) 21(9):2587-2599) and the rate of degradation was monitored by LC-MS analysis using multiple sampled time points as described herein above in LC-MS Method 2. Metabolic stability was evaluated via the half-life from least squares fit of the concentration remaining at the time points based on first-order kinetics.

On to gentamicin [reference compound], for which the MTD in data set [1] (5 second IV bolus) amounted to 100 mg/kg; in data set [1] (30 second IV bolus), 100 mg/kg; in data set [1] (5 minute IV infusion) it was 200 mg/kg; in data set [1] (15 minute IV infusion), 300 mg/kg; in data set [1] (30 minute IV infusion) it was 400 mg/kg.
Turning to `CCOP(=O)(OCC)Oc1ccc(CC(=O)N[C@@H]2C[C@@H](C)O[C@H]3O[C@@H]4[C@@H](O)[C@H](NC)[C@H](O)[C@H](NC)[C@H]4O[C@]32O)nc1` [Compound 3906, Diethyl (6-(2-oxo-2-(((2R,4R,4aS, 5aR,6S,7S,8R,9S,9aR,10aS)-4a,7,9-trihydroxy-2-methyl-6,8-bis(methylamino)decahydro-2H-benzo[b]pyrano[2,3-e][1,4]dioxin-4-yl)amino)ethyl)pyridin-3-yl) phosphate], the half-life at 10 µM in data set [2] is 19.5 h. Besides, in data set [3], the half-life was 3.61 h.
On to `CN[C@@H]1[C@H](O)[C@H](NC)[C@H]2O[C@]3(O)[C@H](O[C@@H]2[C@H]1O)O[C@H](C)C[C@H]3NC(=O)Cc1ccc(-c2ccc(OP(=O)(O)O)cc2)cn1` [Compound 4074, 4-(6-(2-oxo-2-(((2R, 4R, 4aS, 5aR, 6S, 7S, 8R, 9S, 9aR, 10aS)-4a,7,9-trihydroxy-2-methyl-6,8-bis(methyl-amino)decahydro-2H-benzo[b]pyrano[2,3-e][1,4]dioxin-4-yl)amino)ethyl)pyridin-3-yl)phenyl dihydrogen phosphate], for which, in data set [2], the half-life at 10 µM was less than 0.0833 h. For the same molecule, the half-life in data set [3] is 2.98 h.
For `CN[C@@H]1[C@H](O)[C@H](NC)[C@H]2O[C@]3(O)[C@H](O[C@@H]2[C@H]1O)O[C@H](C)C[C@@]3(O)CNCc1ccc(F)c(OP(=O)(O)O)c1` [Compound 3959, 2-fluoro-5-(((((2R,4R,4aS,5aR,6S,7S,8R,9S,9aR,10aS)-4,4a,7,9-tetrahydroxy-2-methyl-6,8-bis(methylamino)decahydro-2H-benzo[b]pyrano[2,3-e][1,4]dioxin-4-yl)methyl)amino)methyl)phenyl dihydrogen phosphate], in data set [3], the half-life is 1.84 h.
